Experimental data taken from ChEMBL document CHEMBL1811816, “Asperaculin A, a sesquiterpenoid from a marine-derived fungus, Aspergillus aculeatus” (J Nat Prod, 2011).
The source made the active and inactive calls.

Columns and labels:
Type in all cases: functional, cell-based
[1] = tested on: MOLT-3; test: Cytotoxicity against human MOLT3 cells at 50 ug/mL after 72 hrs by XTT assay
[2] = tested on: A549; test: Cytotoxicity against human A549 cells at 50 ug/mL after 72 hrs by MTT assay
[3] = tested on: HepG2; test: Cytotoxicity against human HepG2 cells at 50 ug/mL after 72 hrs by MTT assay
[4] = tested on: HuCC-A1; test: Cytotoxicity against human HuCCa1 cells at 50 ug/mL after 72 hrs by MTT assay

Measured: Activity

CC1(C)C[C@]2(C)COC(=O)[C@H]3OC(=O)[C@]4(O)CC[C@@H]1C324 (some centres undefined)
inactive: all assays above
